Experimental data reported in patent US5939385A, “Transglutaminase cross-linkable polypeptides and methods relating thereto” (ZymoGenetics, Inc., priority 1995, dated 1999).
No end group written: not given here.

Molecular target: T1, recombinant Factor XIII (rFXIIIa) (Homo sapiens, UniProt P00488)
T1 construct: made in house
T1 sequence (P00488 39-732 limits assumed): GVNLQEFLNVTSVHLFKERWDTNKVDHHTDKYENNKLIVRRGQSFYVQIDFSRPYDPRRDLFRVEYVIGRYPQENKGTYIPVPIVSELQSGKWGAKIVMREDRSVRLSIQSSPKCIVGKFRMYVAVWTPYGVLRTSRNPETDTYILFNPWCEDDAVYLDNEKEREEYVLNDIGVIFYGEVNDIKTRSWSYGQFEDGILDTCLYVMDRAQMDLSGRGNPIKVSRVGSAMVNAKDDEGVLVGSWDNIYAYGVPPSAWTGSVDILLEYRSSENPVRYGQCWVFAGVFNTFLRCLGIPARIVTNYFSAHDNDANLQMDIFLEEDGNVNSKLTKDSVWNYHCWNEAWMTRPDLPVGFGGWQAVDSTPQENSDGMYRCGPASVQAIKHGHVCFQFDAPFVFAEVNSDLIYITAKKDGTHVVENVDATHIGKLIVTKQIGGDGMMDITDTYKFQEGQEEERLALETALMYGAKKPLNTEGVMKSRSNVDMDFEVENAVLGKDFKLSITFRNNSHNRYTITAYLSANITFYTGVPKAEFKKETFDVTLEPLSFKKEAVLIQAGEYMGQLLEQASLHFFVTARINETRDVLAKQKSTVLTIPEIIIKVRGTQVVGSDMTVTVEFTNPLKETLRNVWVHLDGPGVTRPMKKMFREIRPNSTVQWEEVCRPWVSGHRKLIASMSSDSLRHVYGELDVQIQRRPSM
Test: Factor XIII cross-linking assay of test polypeptide substrates (HPLC area % vs time)
Type: biochemical
Details: for Monomer Consumption d[S]/dt (rate of substrate utilization) / Crosslinking d(2[S-])/dt (rate of monomer incorporation into dimers) / Hydrolysis d[-NH3]/dt (hydrolysis = deamidation): initial rate, 2mM substrate, 40 ug/ml rFXIIIa (preactivated), 2.0 U/ml Thrombin, 2.5 mM CaCl2, pH 7.4; for Monomer Consumption d[S]/dt (rate of substrate utilization): 125 mM NaCl, 50 mM TrisHCl; for Hydrolysis %: share of hydrolysis (deamidation) relative to hydrolysis plus crosslinking, same reaction conditions
Method: Polypeptides are screened for the ability to form transglutaminase-catalyzed cross-links using a cross-linking assay as described in more detail below. […] Each reaction receives 50 mM CaCl2 to a final concentration of 2.5 mM. A negative control for each test substrate is also prepared in which the reaction lacks a transglutaminase (e.g., Factor XIII). A positive control of the fibrinogen polypeptide (The-Ile-Gly-Glu-Gly-Gln-Gln-His-His-Leu-[…]-Gln-Ala-Gly-Asp-Val) is used for each set of reactions. The reactions are initiated by the addition of 40 μg/ml of transglutaminase (e.g., recombinant Factor XIII) followed by 0.1 unit of bovine thrombin (Enzyme Research Laboratories, Inc., South Bend, Ind.) to each solution, except the negative controls. The reactions are incubated in a 37° C. water bath. A time course of 10 μl samples are taken from each reaction at 0 minutes, 30 minutes, 60 minutes, 120 minutes and overnight. The reactions are stopped by boiling for one minute. After the reactions are terminated, each sample is diluted to 50 μl with 40 μl of TBS buffer (120 mM NaCl, 50 mM Tris (pH 7.6)) and the samples are prepared for HPLC analysis.
Each sample is chromatographed on a C-18 reverse phase HPLC column (Vydac, Hesperia, Calif. or the like) using a gradient of 0-40% B in 30 minutes (Solvent A: 0.05% trifluoroacetic acid (TFA) in water and Solvent B: 0.045% TFA in 80% acetonitrile, 20% water) on a Hewlett Packard 1090 Series II HPLC or the like. The signal is detected at a wavelength of 215 nm. The area % of each reaction product is collected and plotted versus time to determine the rates of polypeptide utilization dimer formation and multimer formation. A deamidation ratio is determined by dividing the deamidation rate by the dimerization rate.
The ability of the test polypeptides to form Factor XIII-induced multimers, and the susceptibility of the polypeptides to deamidation were assessed using the method described in detail below.
Approximately 0.5 mg of lyophilized polypeptide was dissolved in 50 mM Tris, 125 mM NaCl (pH 7.6) to give a final concentration of 2 mM by weight. […] Each test polypeptide solution received 50 mM CaCl2 to a final concentration of 2.5 mM. For each reaction, a negative control lacking Factor XIII was included. A positive control of the fibrinogen polypeptide Thr-Ile-Gly-Glu-Gly-Gln-Gln-His-His-Leu-Gly-Gly-Ala-Lys-Gln-Ala-Gly-Asp-Val was used for each set of reactions. The reactions were initiated by the addition of 40 μg/ml of recombinant Factor XIII followed by 0.1 unit of bovine thrombin (Enzyme Research Laboratories, Inc.) to each solution, except the negative controls. The reactions were incubated in a 37° C. water bath. Samples of 10 μl were taken from each reaction at 0 minutes, 30 minutes, 60 minutes, 120 minutes and overnight. The reactions were stopped by boiling for one minutes. The samples were diluted to 50 μl TBS buffer (120 mM NaCl, 50 mM Tris (pH 7.6)), and the samples were prepared for HPLC analysis.
Each reaction was chromatographed on a C-18 reverse phase HPLC column (Vydac, Hesperia, Calif., or the like) using a gradient of 0-40% B in 30 minutes (solvent A: 0.05% TFA in water and Solvent B: 0.045% TFA in 80% acetonitrile/20% water) on a Hewlett Packard 1090 Series II HPLC. The signal was detected at a wavelength of 215 nm. The area % of each reaction product was collected and plotted versus time to determine the rates of polypeptide utilization and dimer formation. A deamidation ratio was determined by dividing the deamidation rate by the dimerization rate. […] The abbreviations used in Table 1 are as follows: d[S]/dt indicates the rate of substrate utilization, d[S2 ]/dt indicates the rate of dimer formation and (-NH2 /S2) indicates the relative rates of deamidation to dimerization. The initial rates were normalized to that of the fibrinogen polypeptide Thr-Ile-Gly-Glu-Gly-Gln-Gln-His-His-Leu-Gly-Gly-Ala-Lys-Gln-Ala-Gly-Asp-Val. […]

Substance	Monomer Consumption d[S]/dt (rate of substrate utilization)	Crosslinking d(2[S-])/dt (rate of monomer incorporation into dimers)	Hydrolysis d[-NH3]/dt (hydrolysis = deamidation)	Hydrolysis %
EGQHHLGAKQAG [-- EGQ-- HHL-- GAKQAG--]	-6.0 uM (monomer)/min	3.0 uM (monomer)/min	5.4 uM (monomer)/min	64%
EGQHHLGGAKQA [-- EGQ-- HHLGGAKQA--]	-10.8 uM (monomer)/min	9.8 uM (monomer)/min	0.0 uM (monomer)/min	0%
GEGQHHLGGAKQAG [-- GEGQ-- HHLGGAKQAG--]	-13.1 uM (monomer)/min	11.2 uM (monomer)/min	0.4 uM (monomer)/min	3%
GQHHLGAKQ [-- GQ-- HHLG-- AKQ--]	-4.7 uM (monomer)/min	4.9 uM (monomer)/min	0.0 uM (monomer)/min	0%
GQHHLGAKQA [-- GQ-- HHL-- GAKQA--]	-8.4 uM (monomer)/min	8.4 uM (monomer)/min	-0.2 uM (monomer)/min	0%
GQHHLGGAKA [-- GQ-- HHLGGAK-- A--]	-2.4 uM (monomer)/min	1.8 uM (monomer)/min	0.8 uM (monomer)/min	31%
GQHHLGGAKQ [-- GQ-- HHLGGAKQ--, Gly-Gln-His-His-Leu-Gly-Gly-Ala-Lys-Gln]	-6.9 uM (monomer)/min	6.2 uM (monomer)/min	0.0 uM (monomer)/min	0%
GQHHLGGAKQG [GQ-- HHLGGAKQG]	-4.4 uM (monomer)/min	4.4 uM (monomer)/min	0.0 uM (monomer)/min	0%
GVGGQHHLGGAKQVP [GVGGQ-- HHLGGAKQVP]	-9.8 uM (monomer)/min	7.6 uM (monomer)/min	0.0 uM (monomer)/min	0%
GVGVPGQHHLGGAKQGVGVP [GVGVPGQ-- HHLGGAKQGVGVP]	-7.3 uM (monomer)/min	5.6 uM (monomer)/min	1.7 uM (monomer)/min	23%
IGEGQHHLGGAKQAGD [-- IGEGQ-- HHLGGAKQAGD--]	-12.5 uM (monomer)/min	14.1 uM (monomer)/min	-1.4 uM (monomer)/min	0%
LSQSKVG [LSQSKVG]	-5.2 uM (monomer)/min	6.8 uM (monomer)/min	1.2 uM (monomer)/min	15%
